Experiments:
A. niger = assay: Franz cell nail bioassay for anti-fungal gas penetration across a human nail; format: cell-based, Aspergillus niger; conditions: 4 applications every 2 h 10 min, read after 24 hours; agar 8 mm below nail
Protocol: After the agar had cooled and set, 25 μl of an A. niger spore suspension was pipetted onto the surface of the agar and a section of human nail fitted in an air-tight manner above the outlet hole, and clamped in place. The cells were then incubated at 32° C. for 24 h to obtain a carpet of mycelium.
The top of the funnel for all of the Franz cells was then covered with Parafilm. The cells were left at room temperature. After a period of 2 h 10 min, the solutions in each Franz cell were removed and replaced with an equivalent solution and the process repeated every 2 h and 10 min for a further […] applications, giving a total of 4 applications. After the final application of solution, the cells were left covered at room temperature, to allow slow growth of the organism for 24 h.

onychomycosis = conditions: cited from earlier work; for Safety concerns: in vivo, po

| SMILES | Growth of A. niger mycelium under human nail (A. niger) | Safety concerns (onychomycosis) | Cure rates (onychomycosis; oral treatment) [%] |
| --- | --- | --- | --- |
| O=C(O)CC(O)(CC(=O)O)C(=O)O [citric acid] | full carpet of growth of mycelium | – | – |
| CCC(C)n1ncn(-c2ccc(N3CCN(c4ccc(OCC5COC(Cn6cncn6)(c6ccc(Cl)cc6Cl)O5)cc4)CC3)cc2)c1=O (centres unmarked) [itraconazole] | – | liver toxicity, severe skin reactions and drug interactions | – |
| O=NO [sodium nitrite] | full carpet of growth of mycelium | – | – |
| CN(C/C=C/C#CC(C)(C)C)Cc1cccc2ccccc12 [terbinafine] | – | liver toxicity, severe skin reactions and drug interactions | ~70 |

Reference: patent US9381381B2, “Treatment of nail infections with no” (Aberdeen University, priority 2001, dated 2016)
